Measurements published in patent US20050233970A1, “Methods for treating long QT syndrome” (priority 2004, published 2005).
Like-named read-outs stand apart in the source and are kept apart here. Square brackets hold non-standard residues; d marks the D form. Peptide text beside a SMILES is read from it. dPhe(4-Cl) = N[C@H](Cc1ccc(Cl)cc1)C(=O)O; d2Nal = N[C@H](Cc1ccc2ccccc2c1)C(=O)O; Lys(iPr) = CC(C)NCCCC[C@H](N)C(=O)O; NMeY = CN[C@@H](Cc1ccc(O)cc1)C(=O)O; d3Pal = N[C@H](Cc1cccnc1)C(=O)O

Experiments:
testosterone [1] = experiment: Study I: plasma testosterone (radioimmunoassay) on ECG study days; assay type: in vivo, human
Experimental: Abarelix was given as a dose of 100 mg IM on days 1, 15, 29 and every 28 days thereafter for 48 weeks. […] Plasma testosterone samples were obtained at the same time. All ECG's were analyzed in a blinded fashion to treatment allocation. Each ECG was analyzed in comparison to its respective baseline for heart rate, QRS duration, PR interval, QT interval, and QTc. Concomitant medicines and prior medical history was recorded on all patients. […] If a patient experienced a QTcB of ≧500 msec while on study, therapy was to be discontinued. Laboratory analysis of testosterone and dihydrotestosterone were determined using certified central laboratories and standard radioimmunoessay methods.

QT interval [2] = settings: human, in vivo
Experimental: Abarelix was given as a dose of 100 mg IM on days 1, 15, 29 and every 28 days thereafter for 48 weeks. Prospectively, a standard 12-lead ECG was performed at baseline and on days 85 and 337. Plasma testosterone samples were obtained at the same time. All ECG's were analyzed in a blinded fashion to treatment allocation. Each ECG was analyzed in comparison to its respective baseline for heart rate, QRS duration, PR interval, QT interval, and QTc. Concomitant medicines and prior medical history was recorded on all patients. Patients with a baseline QT of >450 msec were to be excluded from the study. If a patient experienced a QTcB of ≧500 msec while on study, therapy was to be discontinued. […] They are the focus of this report.

QT interval [3] = settings: human, in vivo; remark: listed apart in the source
Experimental: Studies II and III required an ECG at baseline and on day 169 and, if the patient continued, on day 365. […] The ECG machine-calculated heart rate and QT interval were entered into a database. QTcB and QTcF were calculated utilizing standard formulas.^(F)
QTc evaluations included measurement of baseline, post baseline, on-therapy and change from baseline in QTcB and QTcF in each treatment group.
ECG measurement of QTcB and QTcF were calculated based on standard QT and heart rate measurements. T-tests were used to evaluate intra as well as inter-treatment change from baseline for each treatment group. Comparisons between treatment groups were performed in a pair wise manner.

testosterone [4] = experiment: Studies II and III: plasma testosterone (radioimmunoassay) on ECG study days; assay type: in vivo, human
Experimental: QTcB and QTcF were calculated utilizing standard formulas.^(F)
Laboratory analysis of testosterone and dihydrotestosterone were determined using certified central laboratories and standard radioimmunoessay methods.

Structure (SMILES) | Testosterone Levels, Median (testosterone [1]; Baseline) [ng/dL] | Testosterone Levels, Median (testosterone [1]; Day 85) [ng/dL] | Testosterone Levels, Median (testosterone [1]; Day 337) [ng/dL] | QTcB Baseline (QT interval [2]) | QTcB On Therapy (QT interval [2]) | QTcF Baseline (QT interval [2]) | QTcF Change from Baseline (QT interval [2]) | QTcF On Therapy (QT interval [2]) | QTcB Baseline (QT interval [3]) | QTcB On Therapy (QT interval [3]) | QTcF Baseline (QT interval [3]) | QTcF On Therapy (QT interval [3]) | Testosterone Levels, Median (testosterone [4]; Baseline) [ng/dL] | Testosterone Levels, Median (testosterone [4]; Day 169) [ng/dL]
CC(=O)N[C@H](Cc1ccc2ccccc2c1)C(=O)N[C@H](Cc1ccc(Cl)cc1)C(=O)N[C@H](Cc1cccnc1)C(=O)N[C@@H](CO)C(=O)N(C)[C@@H](Cc1ccc(O)cc1)C(=O)N[C@H](CC(N)=O)C(=O)N[C@@H](CC(C)C)C(=O)N[C@@H](CCCCNC(C)C)C(=O)N1CCC[C@H]1C(=O)N[C@H](C)C(N)=O [Abarelix, abarelix] (Ac-[d2Nal][dPhe(4-Cl)][d3Pal]S[NMeY][dN]L[Lys(iPr)]P[dA]-NH2) | 316 | 23 | 35 | 413.5 (26.8) msec | 426.8 (22.9) msec | 404.6 (23.5) msec | 12.0 (16.2) msec | 419.5 (21.3) msec | 417.9 (28.6) msec | 431.7 (29.8) msec | 410.6 (28.1) msec | 423.4 (28.0) msec | 361 | 14
CCNC(=O)[C@@H]1CCCN1C(=O)[C@H](CCCNC(=N)N)NC(=O)[C@H](CC(C)C)NC(=O)[C@@H](CC(C)C)NC(=O)[C@H](Cc1ccc(O)cc1)NC(=O)[C@H](CO)NC(=O)[C@H](Cc1c[nH]c2ccccc12)NC(=O)[C@H](Cc1c[nH]cn1)NC(=O)[C@@H]1CCC(=O)N1 [Leuprolide, leuprolide] |  |  |  |  |  |  |  |  | 421.6 (29.4) msec | 441.6 (25.8) msec | 414.5 (26.0) msec | 432.1 (23.6) msec | 342 | 9
